Reference: patent publication US12714698B2, “Compositions and methods for treating or preventing dermal disorders” (Drexel University, priority 2015, dated 2026)

Columns and labels:
[1] = system: human cardiac fibroblasts; test: Senescence-associated beta-galactosidase detection; type: cell-based; settings: rapamycin treated cultures (1 nM)
Description: (§1) Cell culture experiments utilizing NRTIs were of the following design. Cultures of either human lung or cardiac fibroblasts were cultivated according to standard culture protocols for these cells (Cristofalo, et al., Journal of Tissue Culture Methods 1980, 6:117-121). Parallel sets of cultures were maintained in normal growth media or in normal growth media with the addition of 1 nM rapamycin. Cultures were maintained with 1 nM rapamycin (Enzo Biologicals) for two weeks before exposure to NRTIs. Cell cultures were exposed to NRTIs at indicated concentrations in individual experiments (generally 10-20 μg/ml) for 7 days, with a change of media and fresh NRTIs at day 4. Mitochondrial measurements, bioanalyzer measurements, immunoblotting for protein expression and phosphorylation status, and assays for senescence were performed at the end of this 7-day period.
Assessment of SA-β-gal activity was performed by plating cells following respective treatments at low density (0.5×10^4/cm^2) to prevent false positive staining known to occur in high density cultures. […] Following incubation, cells were washed three times with PBS and at least 500 cells were counted for each sample in triplicates. Positive cells (blue cells) were expressed as a percentage of total cells.

Lung fibroblasts = test: Senescence markers in lung fibroblasts exposed to NRTIs; type: cell-based, human
Description: as §1
Cell culture reagents were from Cellgro, unless indicated. WI-38 fetal-lung primary human fibroblasts or human cardiac fibroblasts were grown in MEM supplemented with 10% fetal bovine serum, 1% L-glutamine, MEM vitamins, and MEM non-essential amino acids. Cells were maintained in a 37° C. in 5% CO2 incubator. For treatment studies, cells were treated with 1 nM rapamycin (Enzo Biologicals) for two weeks before treatment with NRTIs. […]

[2] = system: seborrheic keratosis lesion; test: Topical treatment of a seborrheic keratosis lesion; type: in vivo, human; settings: 21 days, 10 μM rapamycin in an emulsified gel preparation
Description: FIG. 20 is a photograph of a seborrheic keratosis lesion before and after 21 days of treatment with 10 μM rapamycin in an emulsified gel preparation as in FIG. 19.

[3] = system: human cardiac fibroblasts; test: Mitochondrial respiration, Seahorse XF24 Bioanalyzer; type: cell-based
Description: Cell culture experiments utilizing NRTIs were of the following design. Cultures of either human lung or cardiac fibroblasts were cultivated according to standard culture protocols for these cells (Cristofalo, et al., Journal of Tissue Culture Methods 1980, 6:117-121). Parallel sets of cultures were maintained in normal growth media or in normal growth media with the addition of 1 nM rapamycin. Cultures were maintained with 1 nM rapamycin (Enzo Biologicals) for two weeks before exposure to NRTIs. […] Mitochondrial measurements, bioanalyzer measurements, immunoblotting for protein expression and phosphorylation status, and assays for senescence were performed at the end of this 7-day period. Mitochondrial function was measured using the XF cell mito stress test kit on a Seahorse XF24 Bioanalyzer (Seahorse Bioscience). Cells were seeded at a density of 15,000 cells per well in an XF24 microplate. Following acquisition, results were normalized based upon 10^6 cells counted using a Guava EasyCyte Mini (Millipore), where applicable. […] Respiration rates and proton leak were assessed as outlined in published methods (Hill, et al., Biological chemistry 2012, 393:1485-1512). Mitochondrial respiration was calculated based upon oxygen consumption rate measurements in triplicates from cells seeded in at least quadruplicates. Basal respiration represents the initial oxygen consumption rate measurements and maximal respiration represents the oxygen consumption rate measurements following FCCP addition. ATP-linked respiration is represented as the oligomycin-sensitive oxygen change to basal oxygen consumption rate. Proton leak represents the oligmycin insensitive oxygen consumption rate. […] All data was normalized to cell number by counting cells in each well at the completion of the mitochondrial assessments.

CO[C@H]1C[C@@H]2CC[C@@H](C)[C@@](O)(O2)C(=O)C(=O)N2CCCC[C@H]2C(=O)O[C@H]([C@H](C)C[C@@H]2CC[C@@H](O)[C@H](OC)C2)CC(=O)[C@H](C)/C=C(\C)[C@@H](O)[C@@H](OC)C(=O)[C@H](C)C[C@H](C)/C=C/C=C/C=C/1C [rapamycin]
SA-β-gal following exposure to NRTIs [1]: no increase
effect of rapamycin treatment on NRTI-induced senescence markers (Lung fibroblasts): protection
severity of seborrheic keratosis lesion, visual inspection [2]: significant reduction in severity
basal respiration ([3]; rapamycin-treated (1 nM) vs standard culture): significantly lower
basal respiration when exposed to NRTIs ([3]; rapamycin-treated cells (1 nM)): did not exhibit an increase
maximal respiration when exposed to NRTIs ([3]; rapamycin-treated cells (1 nM)): did not exhibit an increase
proton leak following exposure to NRTIs ([3]; rapamycin-treated cells (1 nM)): did not exhibit an increase
ATP-linked respiration ([3]; rapamycin-treated cultures (1 nM)): reduced
